Laboratory results reported in patent US20180110824A1, “Macrocyclic Modulators of the Ghrelin Receptor” (Ocera Therapeutics, Inc., priority 2016, published 2018).

target: T1, human growth hormone secretagogue receptor (hGHS-R1a) (Homo sapiens, UniProt Q92847); assay: Competitive radioligand binding assay (ghrelin receptor), [125I]-ghrelin displacement on GHS-R/HEK 293 membranes; details: Binding activity at the human ghrelin receptor, [125I]-ghrelin displacement; read-out: Ki
T1 construct: purchased PerkinElmer BioSignal #RBHGHSM; host or cells: HEK-293, stably transfected
T1 sequence (Q92847 whole entry): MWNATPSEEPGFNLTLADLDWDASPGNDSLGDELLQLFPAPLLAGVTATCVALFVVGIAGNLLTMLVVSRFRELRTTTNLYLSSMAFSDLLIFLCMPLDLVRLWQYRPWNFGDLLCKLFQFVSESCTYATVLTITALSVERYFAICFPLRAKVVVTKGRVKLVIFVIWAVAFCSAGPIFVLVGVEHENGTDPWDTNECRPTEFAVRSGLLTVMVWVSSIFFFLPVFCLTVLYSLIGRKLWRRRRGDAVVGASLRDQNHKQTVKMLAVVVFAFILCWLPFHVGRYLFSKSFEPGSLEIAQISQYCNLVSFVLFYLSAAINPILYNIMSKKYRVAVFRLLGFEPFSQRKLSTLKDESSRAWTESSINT
Experimental: The competitive binding assay at the human growth hormone secretagogue receptor (hGHS-R1a) was carried out analogously to assays described in the literature.
Multiscreen Harvest plates-GF/C (Millipore, #MAHFC1H60) • 4. […] Bottom seal (Millipore, #MATAH0P00) • 7. […] Binding Buffer: 25 mM Hepes (pH 7.4), 1 mM CaCl2, 5 mM MgCl2, 2.5 mM EDTA, 0.4% BSA
Competition experiments were performed in a 300 μl filtration assay format. • 1. 220 μL of membranes diluted in binding buffer • 2. 40 μL of compound diluted in binding buffer • 3.
Compounds were provided frozen on dry ice at a stock concentration of 10 mM diluted in 100% DMSO and stored at −80° C. until the day of testing. On the test day, compounds were allowed to thaw at rt O/N and then diluted in assay buffer according to the desired test concentrations. Under these conditions, the maximal final DMSO concentration in the assay was 0.1%.
Plates were sealed with TopSeal-A, vortexed gently and incubated at rt for 30 min. The reaction was arrested by filtering samples through Multiscreen Harvest plates (pre-soaked in 0.5% polyethyleneimine) using a Tomtec Harvester, washed 9 times with 500 μL of cold 50 mM Tris-HCl (pH 7.4, 4° C.), and then plates were air-dried in a fumehood 30 min. A bottom seal was applied to the plates prior to the addition of 25 μL of MicroScint-0 to each well. […] Results were expressed as counts per minute (cpm).
Data were analyzed by GraphPad Prism (GraphPad Software, San Diego, Calif.) using […] non-linear regression analysis.
where total and non-specific binding represent the cpm obtained in the absence or presence of 1 μM ghrelin, respectively.
• 1. Binding performed on membranes prepared from HEK293 expressing the transfected, cloned human ghrelin receptor (hGHS-R1a). • 2. […] Ghrelin (unlabeled, 1 μM) was used to determine non-specific binding. • 4.

SMILES	Ki [nM]
CC(C)C[C@@H]1NCCOc2ccccc2/C=C/CNC(=O)[C@H](Cc2cccc3ccccc23)NC(=O)C2(CCCC2)NC1=O [compound 22]	10 to 100
CC[C@H](C)[C@@H]1NCCOc2ccccc2CCCNC(=O)[C@@H](Cc2cscn2)NC(=O)[C@@H](C)N(C)C1=O [compound 33]	100 to 1000
CC(C)C[C@@H]1NCCOCCNC(=O)[C@H](Cc2ccccc2)NC(=O)C2(CCCC2)NC1=O [compound 44]	> 10000
CCC[C@@H]1NC(=O)C2(CCCC2)NC(=O)[C@H](CC(C)C)NCCOc2ccccc2/C=C/CNC1=O [compound 48]	> 10000
CCC[C@@H]1NCCOc2ccccc2CCCNC(=O)[C@@H](C)NC(=O)CN(C)C1=O [compound 49]	> 10000
CCC[C@@H]1NCCOc2ccccc2CCCNC(=O)[C@@H](CCC(=O)O)NC(=O)CN(C)C1=O [compound 50]	> 10000
CCC[C@@H]1NCCOc2ccccc2CCCNC(=O)CNC(=O)CN(C)C1=O [compound 51]	> 10000
CCCC[C@H]1NC(=O)CN(C)C(=O)[C@H](CCC)NCCOc2ccccc2CCCNC1=O [compound 52]	100 to 1000
CCC[C@@H]1NCCOc2ccccc2CCCNC(=O)[C@@H](CCCN)NC(=O)CN(C)C1=O [compound 53]	> 10000
CCC[C@@H]1NCCOc2ccccc2CCCNC(=O)[C@@H](CO)NC(=O)CN(C)C1=O [compound 54]	> 10000
CCC[C@H]1NCCOc2ccccc2CCCNC(=O)[C@@H](Cc2ccccc2)NC(=O)CN(C)C1=O [compound 55]	1000 to 10000
CCC[C@H]1NCCOc2ccccc2CCCNC(=O)[C@H](Cc2ccccc2)NC(=O)CN(C)C1=O [compound 56]	> 10000
CCC[C@@H]1NCCOc2ccccc2CCCNC(=O)[C@H](Cc2ccccc2)NC(=O)CN(C)C1=O [compound 57]	100 to 1000
CCC[C@@H]1NCCOc2ccccc2CCCNC(=O)[C@@H](Cc2ccccc2)NC(=O)CNC1=O [compound 61]	100 to 1000
CCC[C@@H]1NCCOc2ccccc2CCCNC(=O)[C@@H](Cc2ccccc2)NC(=O)[C@H](CC(C)C)NC1=O [compound 62]	1000 to 10000
CCC[C@@H]1NCCOc2ccccc2CCCNC(=O)[C@@H](Cc2ccccc2)NC(=O)[C@@H](CC(C)C)NC1=O [compound 63]	> 10000
CCC[C@@H]1NCCOc2ccccc2CCCNC(=O)[C@@H](Cc2ccccc2)NC(=O)[C@H](Cc2ccccc2)NC1=O [compound 64]	> 10000
CCC[C@@H]1NCCOc2ccccc2CCCNC(=O)[C@@H](Cc2ccccc2)NC(=O)[C@@H](Cc2ccccc2)NC1=O [compound 65]	1000 to 10000
CCC[C@@H]1NCCOc2ccccc2CCCNC(=O)[C@@H](Cc2ccccc2)NC(=O)C(C)(C)NC1=O [compound 66]	100 to 1000
CCC[C@@H]1NCCOc2ccccc2CCCNC(=O)[C@@H](Cc2ccccc2)NC(=O)C2(CCCC2)NC1=O [compound 67]	100 to 1000
CCC[C@@H]1NCCOc2ccccc2CCCNC(=O)[C@@H](Cc2ccccc2)NC(=O)[C@H](CCCCN)NC1=O [compound 68]	1000 to 10000
CCC[C@@H]1NCCOc2ccccc2CCCNC(=O)[C@@H](Cc2ccccc2)NC(=O)[C@@H](CCCCN)NC1=O [compound 69]	> 10000
CCC[C@@H]1NCCOc2ccccc2CCCNC(=O)[C@@H](Cc2ccccc2)NC(=O)[C@H](CCC(=O)O)NC1=O [compound 70]	> 10000
CCC[C@@H]1NCCOc2ccccc2CCCNC(=O)[C@@H](Cc2ccccc2)NC(=O)[C@@H](CCC(=O)O)NC1=O [compound 71]	> 10000
CN1CC(=O)N[C@H](Cc2ccccc2)C(=O)NCCCc2ccccc2OCCN[C@@H](CCC(=O)O)C1=O [compound 73]	> 10000
CN1CC(=O)N[C@H](Cc2ccccc2)C(=O)NCCCc2ccccc2OCCN[C@@H](CO)C1=O [compound 76]	> 10000
CCC[C@@H]1NCc2ccccc2Sc2ccccc2CNC(=O)[C@@H](Cc2ccccc2)NC(=O)CN(C)C1=O [compound 77]	100 to 1000

SMILES	Ki [nM]
CN1CC(=O)NC(Cc2ccccc2)C(=O)NCCCc2ccccc2OCCNCC1=O (centres unmarked) [compound 80]	> 10000
CCCC1NCCOCCNC(=O)C(Cc2ccccc2)NC(=O)CN(C)C1=O (centres unmarked) [compound 81]	> 10000
CCCC1NCC/C=C/CCNC(=O)C(Cc2ccccc2)NC(=O)CN(C)C1=O (centres unmarked) [compound 83]	> 10000
CC(C)C[C@@H]1NCCOc2ccccc2CCCNC(=O)[C@H](C)NC(=O)C2(CCCC2)NC1=O [compound 87]	> 10000
CC(C)C[C@@H]1NCCOc2ccccc2CCCNC(=O)[C@H](Cc2ccc(O)cc2)NC(=O)C2(CCCC2)NC1=O [compound 88]	1000 to 10000
CC(C)C[C@@H]1NCCOc2ccccc2CCCNC(=O)[C@H](Cc2c[nH]c3ccccc23)NC(=O)C2(CCCC2)NC1=O [compound 89]	1000 to 10000
CC(C)C[C@@H]1NCCOc2ccccc2CCCNC(=O)[C@H](CCc2ccccc2)NC(=O)C2(CCCC2)NC1=O [compound 90]	1000 to 10000
CC(C)C[C@@H]1NCCOc2ccccc2CCCNC(=O)[C@H](CCCCN)NC(=O)C2(CCCC2)NC1=O [compound 91]	> 10000
CC(C)C[C@@H]1NCCOc2ccccc2CCCNC(=O)[C@H](CCC(=O)O)NC(=O)C2(CCCC2)NC1=O [compound 92]	> 10000
CC(C)C[C@@H]1NCCOc2ccccc2CCCNC(=O)[C@H](Cc2ccccc2)NC(=O)C(C)(C)NC1=O [compound 95]	1000 to 10000
CC(C)C[C@H]1NCCOc2ccccc2CCCNC(=O)[C@H](Cc2ccccc2)NC(=O)C2(CCCC2)NC1=O [compound 96]	> 10000
CC(C)C[C@H]1NCCOc2ccccc2CCCNC(=O)[C@@H](Cc2ccccc2)NC(=O)C2(CCCC2)NC1=O [compound 98]	> 10000
C[C@@H]1NCCOc2ccccc2CCCNC(=O)[C@H](Cc2ccccc2)NC(=O)C2(CCCC2)NC1=O [compound 100]	100 to 1000
CCCC[C@@H]1NCCOc2ccccc2CCCNC(=O)[C@H](Cc2ccccc2)NC(=O)C2(CCCC2)NC1=O [compound 101]	100 to 1000
O=C1NC2(CCCC2)C(=O)N[C@@H](Cc2ccccc2)C(=O)NCCCc2ccccc2OCCN[C@H]1Cc1ccccc1 [compound 102]	100 to 1000
NCCCC[C@@H]1NCCOc2ccccc2CCCNC(=O)[C@H](Cc2ccccc2)NC(=O)C2(CCCC2)NC1=O [compound 103]	> 10000
O=C(O)CC[C@@H]1NCCOc2ccccc2CCCNC(=O)[C@H](Cc2ccccc2)NC(=O)C2(CCCC2)NC1=O [compound 104]	> 10000
O=C1NC2(CCCC2)C(=O)N[C@@H](Cc2ccccc2)C(=O)NCCCc2ccccc2OCCN[C@H]1CO [compound 105]	100 to 1000
CC(C)C[C@@H]1NCc2ccccc2Sc2ccccc2CNC(=O)[C@H](Cc2ccccc2)NC(=O)C2(CCCC2)NC1=O [compound 108]	1000 to 10000
CC[C@@H]1NCCOc2ccccc2CCCNC(=O)[C@@H](Cc2ccccc2)NC(=O)[C@@H](C)N(C)C1=O [compound 117]	10 to 100
CC(C)C[C@@H]1NCCOc2ccccc2CCCNC(=O)[C@@H](Cc2ccccc2)NC(=O)[C@@H](C)N(C)C1=O [compound 118]	10 to 100
C[C@@H]1C(=O)N[C@H](Cc2ccccc2)C(=O)NCCCc2ccccc2OCCNC2(CC2)C(=O)N1C [compound 121]	> 10000
O=C1NC2(CCCC2)C(=O)N[C@@H](Cc2ccccc2)C(=O)NC/C=C/c2ccccc2OCCN[C@H]1Cc1ccc(F)cc1 [compound 125]	> 10000
COc1ccc(C[C@@H]2NCCOc3ccccc3/C=C/CNC(=O)[C@H](Cc3ccccc3)NC(=O)C3(CCCC3)NC2=O)cc1 [compound 127]	100 to 1000
O=C1NC/C=C/c2ccccc2OCCN[C@@H](C(c2ccccc2)c2ccccc2)C(=O)NC2(CCCC2)C(=O)N[C@H]1Cc1ccccc1 [compound 129]	> 10000
O=C1NC2(CCCC2)C(=O)N[C@@H](Cc2ccccc2)C(=O)NC/C=C/c2ccccc2OCCN[C@H]1Cc1cccc2ccccc12 [compound 130]	1000 to 10000

same assay, conditions: Table 3B; binding activity at the human ghrelin receptor; read-out: Ki

SMILES	Ki [nM]
CCC(C)[C@@H]1NCCOc2ccccc2/C=C/CNC(=O)[C@H](Cc2ccc(F)c(F)c2)NC(=O)C2(CCCC2)NC1=O (some centres unmarked) [331a]	10 to 100
CCC(C)C1NCCOc2ccccc2C=CCNC(=O)C(Cc2cccc(C(F)(F)F)c2)NC(=O)C2(CCCC2)NC1=O (centres unmarked) [332a]	10 to 100
CCC(C)[C@@H]1NCCCc2ccccc2/C=C/CNC(=O)[C@@H](Cc2ccc(F)cc2)NC(=O)[C@@H](C)N(C)C1=O (some centres unmarked) [353a]	10 to 100

same assay, conditions: Table 3D; read-out: Ki

SMILES	Ki [nM]
CC(C)C[C@@H]1NCCOc2ccccc2/C=C/CNC(=O)[C@H](Cc2c[nH]cn2)NC(=O)C2(CCCC2)NC1=O [444a]	> 10000

same assay, conditions: Table 3E; read-out: Ki

SMILES	Ki [nM]
CCC[C@@H]1NCCOc2ccccc2CCCNC(=O)[C@@H](Cc2ccccc2)NC(=O)[C@H]2CCCN2C1=O [Compound 221]	100 to 1000

same assay, conditions: [125I]-ghrelin displacement, GHS-R/HEK 293 membranes; class symbols; read-out: Binding Activity at the Human Ghrelin Receptor (Ki)

SMILES	Ki [nM]
CCC[C@@H]1NCCOc2ccccc2CCCNC(=O)[C@@H](Cc2ccccc2)NC(=O)[C@H]2CCCN2C1=O [Compound 221]	100 to 1000
